Source: patent US10385057B2, “Pyrazole compounds and methods of making and using same” (Lundbeck La Jolla Research Center, Inc., priority 2015, dated 2019)
pIC50: −log10 of the molar value.

Key:
MAGL = molecular target: T1, MAGL (Mus musculus, UniProt O35678); test: In vitro competitive activity-based protein profiling, mouse MAGL; assay type: biochemical; details: for inhibition at 1 µM: read-out: MAGL % inh. 1 μM (mouse)
T1 construct: mouse brain membrane fraction or cell lysates for mouse assays; from tissue
T1 sequence (O35678 1-303): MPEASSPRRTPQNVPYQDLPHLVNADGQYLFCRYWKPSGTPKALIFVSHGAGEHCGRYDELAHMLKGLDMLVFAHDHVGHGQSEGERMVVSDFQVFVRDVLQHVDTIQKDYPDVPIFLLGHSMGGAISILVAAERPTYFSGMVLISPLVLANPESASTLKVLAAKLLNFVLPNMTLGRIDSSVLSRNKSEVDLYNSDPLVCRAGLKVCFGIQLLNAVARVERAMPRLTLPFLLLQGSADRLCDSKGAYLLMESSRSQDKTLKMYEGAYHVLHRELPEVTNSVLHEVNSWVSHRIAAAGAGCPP
Outline: (§1)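 Mouse brain membranes or cell lysates (mouse) and human prefrontal cortex or cell membrane fractions (human), 1.0 mg/mL protein, preincubated with inhibitor 30 min at 37 °C, then FP-Rh or HT-01 probe 30 min at 37 °C. SDS-PAGE; MAGL and FAAH activity from in-gel fluorescence band intensity.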

FAAH = molecular target: T2, FAAH (Mus musculus, UniProt O08914); test: In vitro competitive activity-based protein profiling, mouse FAAH; assay type: biochemical; details: for inhibition at 1 µM: read-out: FAAH % inh. 1 μM (mouse)
T2 construct: mouse brain membrane fraction or cell lysates for mouse assays; from tissue
T2 sequence (O08914 1-579): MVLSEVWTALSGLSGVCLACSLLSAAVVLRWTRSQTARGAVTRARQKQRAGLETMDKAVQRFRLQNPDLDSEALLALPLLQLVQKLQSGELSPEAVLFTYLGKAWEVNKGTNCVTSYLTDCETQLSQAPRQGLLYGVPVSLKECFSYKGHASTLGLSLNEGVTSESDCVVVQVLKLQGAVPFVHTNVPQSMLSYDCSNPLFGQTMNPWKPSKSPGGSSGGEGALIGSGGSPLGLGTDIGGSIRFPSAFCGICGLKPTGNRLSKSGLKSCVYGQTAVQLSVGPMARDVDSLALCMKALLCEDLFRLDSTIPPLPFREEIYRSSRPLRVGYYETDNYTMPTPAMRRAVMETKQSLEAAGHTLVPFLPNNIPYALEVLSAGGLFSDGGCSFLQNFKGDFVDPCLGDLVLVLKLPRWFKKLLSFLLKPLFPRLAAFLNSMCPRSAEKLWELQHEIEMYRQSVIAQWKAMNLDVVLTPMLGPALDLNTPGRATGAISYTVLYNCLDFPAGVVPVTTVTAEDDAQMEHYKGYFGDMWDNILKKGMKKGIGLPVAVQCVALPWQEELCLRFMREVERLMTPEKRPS
Outline: as §1

inhibition at 1 µM (MAGL; 1 μM) [%] | inhibition at 1 µM (FAAH) [%] | pIC50 (MAGL) | pIC50 (FAAH) | Structure (SMILES) | MAGL % inh. 1 μM (mouse) (MAGL; 1 μM)
≥ 75 | ≥ 75 |  |  | NC(=O)c1cnn(C(=O)N2CCC3(CCN(Cc4ccc(C(F)(F)F)c(N5CCCC5)c4)C3)C2)c1 (stereo not shown) [Example 209, 1-(7-(3-(pyrrolidin-1-yl)-4-(trifluoromethyl)benzyl)-2,7-diazaspiro[4.4]nonane-2-carbonyl)-1H-pyrazole-4-carboxamide] | 
≥ 75 | ≥ 75 |  |  | O=C(c1cnn(C(=O)N2CC3CN(Cc4cccc(C(F)(F)F)c4)CC3C2)c1)N1CCOCC1 (stereo not shown) [Example 7, (4-(morpholine-4-carbonyl)-1H-pyrazol-1-yl)(5-(3-(trifluoromethyl)benzyl)hexahydropyrrolo[3,4-c]pyrrol-2(1H)-yl)methanone] | 
≥ 75 | ≥ 75 | ≥ 7.00 | 6.00 to 7.00 | O=C(N1CC2CN(Cc3ccc(C(F)(F)F)cc3N3CCCC3)CC2C1)n1cc(Cl)cn1 (stereo not shown) [Example 110, (4-chloro-1H-pyrazol-1-yl)(5-(2-(pyrrolidin-1-yl)-4-(trifluoromethyl)benzyl)hexahydropyrrolo[3,4-c]pyrrol-2(1H)-yl)methanone] | 
≥ 75 | ≥ 75 |  |  | CNC(=O)c1cnn(C(=O)N2CC3CN(Cc4cc(Cl)cc(C(F)(F)F)c4)CC3C2)c1 (stereo not shown) [Example 26, 1-(5-(3-chloro-5-(trifluoromethyl)benzyl)octahydropyrrolo[3,4-c]pyrrole-2-carbonyl)-N-methyl-1H-pyrazole-4-carboxamide] | 
≥ 75 | ≥ 75 | ≥ 7.00 | ≥ 7.00 | O=C(N1CC2CN(Cc3ccc(F)cc3N3CCCC3)CC2C1)n1cc(Cl)cn1 (stereo not shown) [Example 103, (4-chloro-1H-pyrazol-1-yl)(5-(4-fluoro-2-(pyrrolidin-1-yl)benzyl)hexahydropyrrolo[3,4-c]pyrrol-2(1H)-yl)methanone] | 
≥ 75 | ≥ 75 |  |  | NC(=O)c1cnn(C(=O)N2CCC3(CCN(Cc4ccc(Cl)c(Cl)c4)C3)C2)c1 (stereo not shown) [Example 202, 1-(7-(3,4-dichlorobenzyl)-2,7-diazaspiro[4.4]nonane-2-carbonyl)-1H-pyrazole-4-carboxamide] | 
≥ 75 | ≥ 75 |  |  | O=C(N1CCC2(CCN(Cc3cccc(N4CCCC4)c3)C2)C1)n1cc(C(F)(F)F)cn1 (stereo not shown) [Example 174, (7-(3-(pyrrolidin-1-yl)benzyl)-2,7-diazaspiro[4.4]nonan-2-yl)(4-(trifluoromethyl)-1H-pyrazol-1-yl)methanone] | 
25 to 50 | ≥ 75 |  |  | CN(Cc1ccc(C(F)(F)F)cc1)[C@@H]1C[C@@H]2CN(C(=O)n3cc(C(=O)N4CCOCC4)cn3)C[C@@H]2C1 [Example 53, (cis-5-(methyl(4-(trifluoromethyl)benzyl)amino)hexahydrocyclopenta[c]pyrrol-2(1H)-yl)(4-(morpholine-4-carbonyl)-1H-pyrazol-1-yl)methanone] | 
≥ 75 | 25 to 50 |  |  | CC(=O)N(Cc1ccccc1Cl)[C@H]1C[C@@H]2CN(C(=O)n3cc(Cl)cn3)C[C@@H]2C1 [Example 63, N-(trans-2-(4-chloro-1H-pyrazole-1-carbonyl)octahydrocyclopenta[c]pyrrol-5-yl)-N-(2-chlorobenzyl)acetamide] | 
50 to 75 | ≥ 75 |  |  | CN(Cc1ccccc1Cl)[C@@H]1C[C@@H]2CN(C(=O)n3cc(C(=O)N4CCOCC4)cn3)C[C@@H]2C1 [Example 85, (cis-5-((2-chlorobenzyl)(methyl)amino)hexahydrocyclopenta[c]pyrrol-2(1H)-yl)(4-(morpholine-4-carbonyl)-1H-pyrazol-1-yl)methanone] | 

Second part, the compound before the results:

Structure (SMILES) | inhibition at 1 µM (MAGL; 1 μM) [%] | inhibition at 1 µM (FAAH) [%] | pIC50 (MAGL) | pIC50 (FAAH) | MAGL % inh. 1 μM (mouse) (MAGL; 1 μM)
O=C(N1CCC2(CCN(Cc3cccc(N4CCOCC4)c3)C2)C1)n1cc(C(F)(F)F)cn1 (stereo not shown) [Example 175, (7-(3-morpholinobenzyl)-2,7-diazaspiro[4.4]nonan-2-yl)(4-(trifluoromethyl)-1H-pyrazol-1-yl)methanone] | ≥ 75 | ≥ 75 |  |  | 
CNC(=O)c1cnn(C(=O)N2CCC3(CCN(Cc4ccc(Cl)cc4)C3)C2)c1 (stereo not shown) [Example 38, 1-(7-(4-chlorobenzyl)-2,7-diazaspiro[4.4]nonane-2-carbonyl)-N-methyl-1H-pyrazole-4-carboxamide] | 0 to 25 | ≥ 75 | 5.00 to 6.00 | 6.00 to 7.00 | 
CN(Cc1ccc(-c2cccnn2)cc1C(F)(F)F)[C@@H]1C[C@@H]2CN(C(=O)n3cc(C(N)=O)cn3)C[C@@H]2C1 [Example 191, 1-(cis-5-(methyl(4-(pyridazin-3-yl)-2-(trifluoromethyl)benzyl)amino)octahydrocyclopenta[c]pyrrole-2-carbonyl)-1H-pyrazole-4-carboxamide] | ≥ 75 | ≥ 75 |  |  | 
COc1cccc(CN2CC3CN(C(=O)n4cc(C(F)(F)F)cn4)CC3C2)c1 (stereo not shown) [Example 142, (5-(3-methoxybenzyl)hexahydropyrrolo[3,4-c]pyrrol-2(1H)-yl)(4-(trifluoromethyl)-1H-pyrazol-1-yl)methanone] | ≥ 75 | ≥ 75 | ≥ 7.00 | ≥ 7.00 | 
O=C(N1CC2CN(Cc3ccccc3N3CCOCC3)CC2C1)n1cc(C(F)(F)F)cn1 (stereo not shown) [Example 157, (5-(2-morpholinobenzyl)hexahydropyrrolo[3,4-c]pyrrol-2(1H)-yl)(4-(trifluoromethyl)-1H-pyrazol-1-yl)methanone] | ≥ 75 | ≥ 75 | ≥ 7.00 | 6.00 to 7.00 | 
CN(Cc1ccccc1Cl)[C@@H]1C[C@@H]2CN(C(=O)n3cc(C(=O)N4CCCC4)cn3)C[C@@H]2C1 [Example 89, (cis-5-((2-chlorobenzyl)(methyl)amino)hexahydrocyclopenta[c]pyrrol-2(1H)-yl)(4-(pyrrolidine-1-carbonyl)-1H-pyrazol-1-yl)methanone] |  | ≥ 75 |  |  | C (% inhibition greater than or equal to 25% and less than 50%)
O=C(N1CC2CN(Cc3ccc(F)cc3N3CCOCC3)CC2C1)n1cc(Cl)cn1 (stereo not shown) [Example 100, (4-chloro-1H-pyrazol-1-yl)(5-(4-fluoro-2-morpholinobenzyl)hexahydropyrrolo[3,4-c]pyrrol-2(1H)-yl)methanone] | ≥ 75 | ≥ 75 | ≥ 7.00 | 6.00 to 7.00 | 
O=C(O)c1cnn(C(=O)N2CC3CN(Cc4cccc(Oc5ccccc5)c4)CC3C2)c1 (stereo not shown) [Example 187, 1-(5-(3-phenoxybenzyl)octahydropyrrolo[3,4-c]pyrrole-2-carbonyl)-1H-pyrazole-4-carboxylic acid] | 50 to 75 | ≥ 75 |  |  | 
O=C(N1CC2CN(Cc3ccccc3F)CC2C1)n1cc(C(F)(F)F)cn1 (stereo not shown) [Example 152, (5-(2-fluorobenzyl)hexahydropyrrolo[3,4-c]pyrrol-2(1H)-yl)(4-(trifluoromethyl)-1H-pyrazol-1-yl)methanone] | ≥ 75 | ≥ 75 | ≥ 7.00 | ≥ 7.00 | 
O=C(N1CC2CN(Cc3cccc(Oc4ccccc4)c3)CC2C1)n1cc(Cl)cn1 (stereo not shown) [Example 124, (4-chloro-1H-pyrazol-1-yl)(5-(3-phenoxybenzyl)hexahydropyrrolo[3,4-c]pyrrol-2(1H)-yl)methanone] | ≥ 75 | ≥ 75 | ≥ 7.00 | ≥ 7.00 | 
CN(Cc1ccccc1Cl)[C@H]1C[C@@H]2CN(C(=O)n3cc(C(=O)N4CCN(C5CC5)CC4)cn3)C[C@@H]2C1 [Example 95, (trans-5-((2-chlorobenzyl)(methyl)amino)hexahydrocyclopenta[c]pyrrol-2(1H)-yl)(4-(4-cyclopropylpiperazine-1-carbonyl)-1H-pyrazol-1-yl)methanone] | ≥ 75 | 0 to 25 |  |  | 
CN(Cc1ccccc1C(F)(F)F)[C@@H]1C[C@@H]2CN(C(=O)n3cc(C(=O)N4CCCC4)cn3)C[C@@H]2C1 [Example 92, (cis-5-(methyl(2-(trifluoromethyl)benzyl)amino)hexahydrocyclopenta[c]pyrrol-2(1H)-yl)(4-(pyrrolidine-1-carbonyl)-1H-pyrazol-1-yl)methanone] | ≥ 75 | ≥ 75 |  |  | 
O=C(N1CCC2(CCN(Cc3ccc(Cl)c(Cl)c3)C2)C1)n1cc(Cl)cn1 (stereo not shown) [Example 127, (4-chloro-1H-pyrazol-1-yl)(7-(3,4-dichlorobenzyl)-2,7-diazaspiro[4.4]nonan-2-yl)methanone] | ≥ 75 | ≥ 75 | 6.00 to 7.00 | ≥ 7.00 | 
